In ChEMBL document CHEMBL4422610, “HDAC as onco target: Reviewing the synthetic approaches with SAR study of their inhibitors” (Eur J Med Chem, 2018):
One block for each molecule: values may come before it.

Assays:
A549 = assay: cells; details: Homo sapiens
MCF7 [1] = assay: cells; details: Homo sapiens
MKN-45 = assay: cells; details: Homo sapiens
Histone deacetylase 4 = Histone deacetylase 4 (Homo sapiens, UniProt P56524); assay: Inhibition of human HDAC4 using fluorogenic HDAC substrate
Histone deacetylase 9 = Histone deacetylase 9 (Homo sapiens, UniProt Q9UKV0); assay: Inhibition of human HDAC9 using fluorogenic HDAC substrate
Histone deacetylase 9, sequence (Q9UKV0 whole entry): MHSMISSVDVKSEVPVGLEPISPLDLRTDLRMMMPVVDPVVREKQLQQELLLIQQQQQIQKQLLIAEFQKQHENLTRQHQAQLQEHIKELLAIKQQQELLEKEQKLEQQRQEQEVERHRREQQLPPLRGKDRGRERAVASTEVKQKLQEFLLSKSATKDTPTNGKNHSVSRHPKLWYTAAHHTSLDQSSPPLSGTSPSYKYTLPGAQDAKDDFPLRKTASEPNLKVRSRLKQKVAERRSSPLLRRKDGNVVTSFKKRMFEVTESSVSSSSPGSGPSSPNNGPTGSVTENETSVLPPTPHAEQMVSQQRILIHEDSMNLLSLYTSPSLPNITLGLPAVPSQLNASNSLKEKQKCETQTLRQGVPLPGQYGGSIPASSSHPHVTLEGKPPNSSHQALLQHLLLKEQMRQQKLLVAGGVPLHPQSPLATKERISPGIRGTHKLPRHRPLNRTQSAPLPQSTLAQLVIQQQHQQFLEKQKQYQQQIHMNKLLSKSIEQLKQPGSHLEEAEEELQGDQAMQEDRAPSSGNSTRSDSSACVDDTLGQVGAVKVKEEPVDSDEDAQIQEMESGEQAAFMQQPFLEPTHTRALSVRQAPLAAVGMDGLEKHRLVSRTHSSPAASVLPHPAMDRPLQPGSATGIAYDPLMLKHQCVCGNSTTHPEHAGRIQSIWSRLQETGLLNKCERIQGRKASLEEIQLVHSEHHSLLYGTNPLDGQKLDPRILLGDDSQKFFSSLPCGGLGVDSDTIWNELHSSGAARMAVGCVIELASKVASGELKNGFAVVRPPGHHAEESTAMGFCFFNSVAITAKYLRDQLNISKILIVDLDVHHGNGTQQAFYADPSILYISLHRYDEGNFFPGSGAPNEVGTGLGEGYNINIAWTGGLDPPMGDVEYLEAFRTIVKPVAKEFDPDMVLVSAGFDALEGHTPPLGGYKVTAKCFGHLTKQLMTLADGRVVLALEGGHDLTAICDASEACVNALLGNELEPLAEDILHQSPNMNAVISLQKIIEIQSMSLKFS

[2] = target: T1, Polyamine deacetylase HDAC10 (Homo sapiens, UniProt Q969S8); assay: Inhibition of human HDAC10 using fluorogenic HDAC substrate
T1 sequence (Q969S8 whole entry): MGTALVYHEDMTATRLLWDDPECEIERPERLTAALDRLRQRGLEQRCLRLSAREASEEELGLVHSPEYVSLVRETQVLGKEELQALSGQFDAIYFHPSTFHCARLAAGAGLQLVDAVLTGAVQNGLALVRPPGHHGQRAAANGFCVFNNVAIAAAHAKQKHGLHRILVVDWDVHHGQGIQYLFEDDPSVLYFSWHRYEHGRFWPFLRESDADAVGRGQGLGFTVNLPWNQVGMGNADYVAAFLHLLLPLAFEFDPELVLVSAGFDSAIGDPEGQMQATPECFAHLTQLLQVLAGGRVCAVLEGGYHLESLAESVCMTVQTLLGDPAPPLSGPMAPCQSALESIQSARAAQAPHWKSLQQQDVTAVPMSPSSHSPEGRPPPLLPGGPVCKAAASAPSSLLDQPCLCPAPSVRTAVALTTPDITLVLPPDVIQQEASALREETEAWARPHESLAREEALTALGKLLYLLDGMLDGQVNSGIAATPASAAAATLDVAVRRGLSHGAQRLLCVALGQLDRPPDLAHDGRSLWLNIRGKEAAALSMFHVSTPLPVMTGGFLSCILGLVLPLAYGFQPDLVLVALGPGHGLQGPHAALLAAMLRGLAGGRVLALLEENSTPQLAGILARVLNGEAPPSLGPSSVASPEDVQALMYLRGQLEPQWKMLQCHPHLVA

Histone deacetylase 11 = target: T2, Histone deacetylase 11 (Homo sapiens, UniProt Q96DB2); assay: Inhibition of human HDAC11 using fluorogenic HDAC substrate
T2 sequence (Q96DB2 whole entry): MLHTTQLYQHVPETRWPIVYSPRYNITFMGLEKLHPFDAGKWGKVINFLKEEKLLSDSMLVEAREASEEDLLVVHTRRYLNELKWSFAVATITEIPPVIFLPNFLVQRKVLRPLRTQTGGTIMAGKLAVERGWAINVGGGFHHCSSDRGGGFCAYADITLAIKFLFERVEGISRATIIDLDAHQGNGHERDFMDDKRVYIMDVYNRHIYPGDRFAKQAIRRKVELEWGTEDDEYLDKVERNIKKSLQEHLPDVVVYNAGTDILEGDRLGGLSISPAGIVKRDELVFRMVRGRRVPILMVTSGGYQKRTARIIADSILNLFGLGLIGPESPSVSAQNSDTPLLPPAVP

Histone deacetylase 8 [3] = target: T3, Histone deacetylase 8 (Homo sapiens, UniProt Q9BY41); assay: Inhibition of human HDAC8 using fluorogenic HDAC substrate
T3 sequence (Q9BY41 whole entry): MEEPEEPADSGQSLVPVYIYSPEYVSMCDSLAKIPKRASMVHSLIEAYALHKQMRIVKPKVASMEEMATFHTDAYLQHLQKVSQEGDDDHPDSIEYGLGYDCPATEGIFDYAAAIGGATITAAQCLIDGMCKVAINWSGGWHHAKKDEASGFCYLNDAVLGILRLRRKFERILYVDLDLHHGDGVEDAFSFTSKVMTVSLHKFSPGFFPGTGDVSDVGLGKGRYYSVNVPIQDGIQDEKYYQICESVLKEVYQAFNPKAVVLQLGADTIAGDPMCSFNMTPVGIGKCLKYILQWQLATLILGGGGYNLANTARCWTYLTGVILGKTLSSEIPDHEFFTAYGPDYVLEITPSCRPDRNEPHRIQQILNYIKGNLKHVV

Histone deacetylase 1 [4] = target: T4, Histone deacetylase 1 (Homo sapiens, UniProt Q13547); assay: Inhibition of human HDAC1 using fluorogenic HDAC substrate
T4 sequence (Q13547 whole entry): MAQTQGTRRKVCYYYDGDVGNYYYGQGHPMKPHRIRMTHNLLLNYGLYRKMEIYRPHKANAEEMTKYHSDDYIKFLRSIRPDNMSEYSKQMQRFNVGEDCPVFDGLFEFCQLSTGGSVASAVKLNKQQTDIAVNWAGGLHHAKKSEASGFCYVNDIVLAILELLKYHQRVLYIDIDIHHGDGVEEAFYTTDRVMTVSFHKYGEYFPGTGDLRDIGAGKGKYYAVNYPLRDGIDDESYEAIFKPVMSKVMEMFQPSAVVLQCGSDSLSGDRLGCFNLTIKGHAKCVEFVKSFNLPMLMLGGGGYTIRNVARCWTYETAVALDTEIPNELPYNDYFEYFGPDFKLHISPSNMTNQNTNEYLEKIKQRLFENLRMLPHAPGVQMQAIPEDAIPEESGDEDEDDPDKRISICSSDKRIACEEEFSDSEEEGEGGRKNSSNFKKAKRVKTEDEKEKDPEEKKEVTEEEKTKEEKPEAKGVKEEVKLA

Histone deacetylase 5 = Histone deacetylase 5 (Homo sapiens, UniProt Q9UQL6); assay: Inhibition of human HDAC5 using fluorogenic HDAC substrate
Histone deacetylase 5, sequence (Q9UQL6 whole entry): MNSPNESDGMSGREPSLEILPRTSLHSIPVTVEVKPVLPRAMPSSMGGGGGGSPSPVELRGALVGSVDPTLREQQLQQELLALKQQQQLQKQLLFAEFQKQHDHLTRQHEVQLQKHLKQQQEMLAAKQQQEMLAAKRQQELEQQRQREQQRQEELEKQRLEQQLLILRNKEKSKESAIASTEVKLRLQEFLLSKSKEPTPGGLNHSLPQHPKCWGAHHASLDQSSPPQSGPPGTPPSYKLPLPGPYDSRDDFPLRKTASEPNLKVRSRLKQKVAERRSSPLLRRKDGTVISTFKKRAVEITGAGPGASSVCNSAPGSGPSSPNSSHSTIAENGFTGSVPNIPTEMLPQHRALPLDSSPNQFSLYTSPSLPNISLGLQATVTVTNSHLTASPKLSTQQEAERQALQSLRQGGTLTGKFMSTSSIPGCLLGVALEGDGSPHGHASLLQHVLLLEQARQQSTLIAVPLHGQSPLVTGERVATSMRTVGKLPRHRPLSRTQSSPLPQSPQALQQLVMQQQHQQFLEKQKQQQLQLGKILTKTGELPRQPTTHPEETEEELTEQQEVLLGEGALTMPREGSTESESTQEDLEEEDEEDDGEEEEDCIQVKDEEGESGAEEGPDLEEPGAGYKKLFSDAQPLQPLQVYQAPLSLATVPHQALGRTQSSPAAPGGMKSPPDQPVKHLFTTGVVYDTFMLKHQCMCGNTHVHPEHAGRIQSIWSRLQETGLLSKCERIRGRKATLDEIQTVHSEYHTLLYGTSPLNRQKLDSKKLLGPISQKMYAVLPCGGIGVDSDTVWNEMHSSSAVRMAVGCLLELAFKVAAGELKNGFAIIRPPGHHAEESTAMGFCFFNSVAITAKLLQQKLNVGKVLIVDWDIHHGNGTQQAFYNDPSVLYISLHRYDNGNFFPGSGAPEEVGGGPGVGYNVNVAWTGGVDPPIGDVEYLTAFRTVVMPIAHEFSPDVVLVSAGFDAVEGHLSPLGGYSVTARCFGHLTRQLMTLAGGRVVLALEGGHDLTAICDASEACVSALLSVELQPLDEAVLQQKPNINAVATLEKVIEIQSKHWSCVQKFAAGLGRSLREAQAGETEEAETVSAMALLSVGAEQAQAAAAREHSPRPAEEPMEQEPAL

[5] = target: T5, Protein deacetylase HDAC6 (Homo sapiens, UniProt Q9UBN7); assay: Inhibition of human HDAC6 using fluorogenic HDAC substrate
T5 sequence (Q9UBN7 whole entry): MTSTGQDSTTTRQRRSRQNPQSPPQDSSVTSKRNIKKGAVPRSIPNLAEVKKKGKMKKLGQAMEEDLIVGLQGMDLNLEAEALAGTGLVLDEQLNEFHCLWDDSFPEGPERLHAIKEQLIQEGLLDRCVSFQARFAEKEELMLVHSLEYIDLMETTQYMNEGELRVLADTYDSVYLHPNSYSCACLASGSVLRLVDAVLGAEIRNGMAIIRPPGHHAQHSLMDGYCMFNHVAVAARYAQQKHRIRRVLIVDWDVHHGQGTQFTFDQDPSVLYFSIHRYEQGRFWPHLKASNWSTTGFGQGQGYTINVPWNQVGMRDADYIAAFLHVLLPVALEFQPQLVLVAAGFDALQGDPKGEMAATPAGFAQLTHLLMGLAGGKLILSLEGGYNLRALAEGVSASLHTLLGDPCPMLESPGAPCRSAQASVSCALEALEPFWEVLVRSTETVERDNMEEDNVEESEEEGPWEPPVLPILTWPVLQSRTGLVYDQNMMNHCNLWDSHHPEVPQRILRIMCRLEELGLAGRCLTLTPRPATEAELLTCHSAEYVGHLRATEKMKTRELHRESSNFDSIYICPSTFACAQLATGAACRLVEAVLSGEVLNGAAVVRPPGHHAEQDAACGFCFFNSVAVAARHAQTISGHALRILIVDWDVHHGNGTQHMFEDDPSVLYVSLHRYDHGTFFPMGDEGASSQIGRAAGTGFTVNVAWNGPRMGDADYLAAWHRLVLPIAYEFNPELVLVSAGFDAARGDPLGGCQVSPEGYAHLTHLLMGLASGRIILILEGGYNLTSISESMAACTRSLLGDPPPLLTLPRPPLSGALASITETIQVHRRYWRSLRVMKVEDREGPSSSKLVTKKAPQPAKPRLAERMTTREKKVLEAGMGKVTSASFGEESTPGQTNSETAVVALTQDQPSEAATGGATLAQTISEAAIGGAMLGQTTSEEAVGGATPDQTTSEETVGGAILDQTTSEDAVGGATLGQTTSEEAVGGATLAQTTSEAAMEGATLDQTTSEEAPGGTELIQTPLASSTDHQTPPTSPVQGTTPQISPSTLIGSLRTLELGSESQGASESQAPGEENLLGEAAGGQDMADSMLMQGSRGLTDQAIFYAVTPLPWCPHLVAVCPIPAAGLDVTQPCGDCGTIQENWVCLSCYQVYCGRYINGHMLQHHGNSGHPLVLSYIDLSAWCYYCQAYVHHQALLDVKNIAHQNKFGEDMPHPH

Histone deacetylase 7 = target: T6, Histone deacetylase 7 (Homo sapiens, UniProt Q8WUI4); assay: Inhibition of human HDAC7 using fluorogenic HDAC substrate
T6 sequence (Q8WUI4 whole entry): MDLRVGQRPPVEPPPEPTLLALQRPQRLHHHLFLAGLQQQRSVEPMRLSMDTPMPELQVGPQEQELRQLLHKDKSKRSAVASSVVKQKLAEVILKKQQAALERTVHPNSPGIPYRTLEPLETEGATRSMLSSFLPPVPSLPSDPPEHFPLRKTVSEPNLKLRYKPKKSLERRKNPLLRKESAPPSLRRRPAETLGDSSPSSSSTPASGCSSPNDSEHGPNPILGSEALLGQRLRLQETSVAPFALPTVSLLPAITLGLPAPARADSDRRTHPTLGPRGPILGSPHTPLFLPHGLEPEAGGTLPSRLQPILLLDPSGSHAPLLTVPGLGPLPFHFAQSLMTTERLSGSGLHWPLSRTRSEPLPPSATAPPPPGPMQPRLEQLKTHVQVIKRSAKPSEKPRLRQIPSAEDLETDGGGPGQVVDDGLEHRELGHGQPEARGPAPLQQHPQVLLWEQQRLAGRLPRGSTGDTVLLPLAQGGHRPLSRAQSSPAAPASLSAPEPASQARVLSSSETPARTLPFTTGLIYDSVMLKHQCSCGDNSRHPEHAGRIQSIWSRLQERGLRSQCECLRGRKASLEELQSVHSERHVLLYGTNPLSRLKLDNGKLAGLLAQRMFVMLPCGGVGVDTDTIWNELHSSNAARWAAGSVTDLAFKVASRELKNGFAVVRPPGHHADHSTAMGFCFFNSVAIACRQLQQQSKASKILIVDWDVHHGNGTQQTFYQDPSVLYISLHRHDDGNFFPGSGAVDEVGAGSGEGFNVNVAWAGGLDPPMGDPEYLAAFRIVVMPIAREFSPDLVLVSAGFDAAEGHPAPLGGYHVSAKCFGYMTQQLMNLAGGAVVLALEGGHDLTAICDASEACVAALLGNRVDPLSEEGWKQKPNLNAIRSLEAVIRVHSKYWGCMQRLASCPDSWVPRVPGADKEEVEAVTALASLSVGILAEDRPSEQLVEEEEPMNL

Vero = assay: cells; format: ADME, cell-based; details: Chlorocebus sabaeus
RWPE-1 = assay: cells; format: ADME, cell-based; details: Homo sapiens
MCF7 [6] = assay: cells; format: functional, cell-based; details: Homo sapiens
MDA-MB-231 = assay: cells; details: Homo sapiens
PC-3 = assay: cells; format: functional, cell-based; details: Homo sapiens
[7] = target: T5, Protein deacetylase HDAC6; assay: Inhibition of HDAC6 (unknown origin) using (FAM)-labeled acetylated peptide as substrate measured after 17 hrs by fluorescence assay
Histone deacetylase 2 = Histone deacetylase 2 (Homo sapiens, UniProt Q92769)
Histone deacetylase 2, sequence (Q92769 whole entry): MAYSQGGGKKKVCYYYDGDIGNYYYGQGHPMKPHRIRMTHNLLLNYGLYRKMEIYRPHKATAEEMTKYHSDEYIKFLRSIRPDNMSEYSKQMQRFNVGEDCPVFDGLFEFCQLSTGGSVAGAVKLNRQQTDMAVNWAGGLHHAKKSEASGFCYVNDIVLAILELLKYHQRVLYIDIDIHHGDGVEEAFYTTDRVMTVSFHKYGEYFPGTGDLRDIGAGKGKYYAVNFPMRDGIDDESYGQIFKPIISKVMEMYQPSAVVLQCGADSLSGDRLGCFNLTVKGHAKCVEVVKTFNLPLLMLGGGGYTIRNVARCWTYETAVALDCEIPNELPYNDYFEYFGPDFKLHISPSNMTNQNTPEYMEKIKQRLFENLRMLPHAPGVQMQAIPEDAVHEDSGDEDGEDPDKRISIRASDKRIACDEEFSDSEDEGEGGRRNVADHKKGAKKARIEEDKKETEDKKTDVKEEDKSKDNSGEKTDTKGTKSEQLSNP

[8] = target: T1, Polyamine deacetylase HDAC10; assay: Inhibition of HDAC10 (unknown origin) using (FAM)-labeled acetylated peptide as substrate measured after 17 hrs by fluorescence assay
Histone deacetylase 8 [9] = target: T3, Histone deacetylase 8; assay: Inhibition of HDAC8 (unknown origin) using (FAM)-labeled acetylated peptide as substrate measured after 17 hrs by fluorescence assay
Histone deacetylase 1 [10] = target: T4, Histone deacetylase 1; assay: Inhibition of HDAC1 (unknown origin) using (FAM)-labeled acetylated peptide as substrate measured after 17 hrs by fluorescence assay
[11] = target: Protein deacetylase HDAC6 (Homo sapiens) (UniProt Q9UBN7); assay: Inhibition of human HDAC6 at 100 uM relative to control
Histone deacetylase 8 [12] = target: T3, Histone deacetylase 8; assay: Inhibition of human HDAC8 using ZMTFAL as substrate measured after 90 mins by fluorescence assay
Histone deacetylase 1 [13] = target: T4, Histone deacetylase 1; assay: Inhibition of recombinant human GST-fused HDAC1 expressed in HEK293 cells Fluor-de-lys as substrate measured after 60 mins by fluorescence assay
Histone deacetylase [14] = format: cell-based, Homo sapiens; details: hela
[15] = target: T5, Protein deacetylase HDAC6; assay: Inhibition of recombinant human His-tagged HDAC6 expressed in baculovirus infected insect cells using Fluor-de-lys as substrate measured after 60 mins by fluorescence assay
Histone deacetylase [16] = format: cell-based, Homo sapiens; details: hela; remark: listed apart in the source
Histone deacetylase 1 [17] = target: T4, Histone deacetylase 1; assay: Inhibition of recombinant human FLAG/His-tagged HDAC1 expressed in baculovirus expression system using Boc-l-Lys(Ac)-AMC as substrate preincubated up to 3 hrs and measured after 35 mins by fluorescence assay
[18] = target: Histone deacetylase 3/Nuclear receptor corepressor 2 (HDAC3/NCoR2) (Homo sapiens) (UniProt O15379+Q9Y618); assay: Inhibition of human recombinant full length C-terminal His-tagged HDAC3 (1 to 428 residues)/N-terminal GST-tagged NCOR2 (395 to 489 residues) expressed in insect cells using Boc-l-Lys(Ac)-AMC as substrate preincubated up to 3 hrs and measured after 35 mins by fluorescence assay

Histone deacetylase 4, sequence (P56524 whole entry): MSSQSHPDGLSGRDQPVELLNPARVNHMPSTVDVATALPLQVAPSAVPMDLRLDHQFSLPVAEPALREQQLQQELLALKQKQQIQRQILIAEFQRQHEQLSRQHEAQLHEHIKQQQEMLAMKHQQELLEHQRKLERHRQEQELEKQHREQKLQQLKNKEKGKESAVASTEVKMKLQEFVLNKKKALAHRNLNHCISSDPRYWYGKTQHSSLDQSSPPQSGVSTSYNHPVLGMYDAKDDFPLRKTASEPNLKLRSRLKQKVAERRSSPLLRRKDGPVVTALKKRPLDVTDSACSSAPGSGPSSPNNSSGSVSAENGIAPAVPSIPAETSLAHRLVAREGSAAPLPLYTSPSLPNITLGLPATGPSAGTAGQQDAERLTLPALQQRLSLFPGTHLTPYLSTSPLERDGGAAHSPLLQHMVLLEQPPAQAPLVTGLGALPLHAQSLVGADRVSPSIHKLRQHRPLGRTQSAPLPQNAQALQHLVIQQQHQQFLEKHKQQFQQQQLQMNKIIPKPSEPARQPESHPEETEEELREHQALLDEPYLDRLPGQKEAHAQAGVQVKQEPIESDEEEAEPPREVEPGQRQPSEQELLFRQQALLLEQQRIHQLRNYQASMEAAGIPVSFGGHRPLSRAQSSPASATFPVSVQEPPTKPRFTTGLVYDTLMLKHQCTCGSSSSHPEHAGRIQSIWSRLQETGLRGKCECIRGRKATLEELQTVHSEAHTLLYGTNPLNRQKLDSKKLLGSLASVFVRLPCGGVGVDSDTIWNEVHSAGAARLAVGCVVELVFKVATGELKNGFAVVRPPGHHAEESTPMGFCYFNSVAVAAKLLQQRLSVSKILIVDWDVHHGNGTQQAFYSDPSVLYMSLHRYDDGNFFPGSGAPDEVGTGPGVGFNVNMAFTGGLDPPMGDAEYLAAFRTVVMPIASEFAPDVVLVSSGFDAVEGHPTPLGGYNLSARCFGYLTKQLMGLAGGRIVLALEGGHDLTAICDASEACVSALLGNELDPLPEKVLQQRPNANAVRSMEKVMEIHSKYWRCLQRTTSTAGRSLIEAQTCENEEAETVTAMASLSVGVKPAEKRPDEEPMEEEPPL

- IC50 (Histone deacetylase 4): > 30 µM
- IC50 (Histone deacetylase 9): 25 µM
- IC50 [2]: > 30 µM
- IC50 (Histone deacetylase 11): 1.5 µM
- IC50 (Histone deacetylase 8 [3]): 5.3 µM
- IC50 (Histone deacetylase 1 [4]): > 30 µM
- IC50 (Histone deacetylase 5): 27 µM
- IC50 [5]: 0.036 µM
- IC50 (Histone deacetylase 7): > 30 µM
Compound: O=C(NO)c1ccc(CN2c3ccccc3C[C@@H]3CCCC[C@H]32)cc1

- inhibition [11]: 30%
- IC50 (Histone deacetylase 8 [12]): 27.6 µM
Compound: O=C(NO)c1ccc(NC(=S)N/N=C/c2ccccc2)cc1

- inhibition [11]: 23%
- IC50 (Histone deacetylase 8 [12]): 19.7 µM
Compound: O=C(NO)c1ccc(NC(=S)N/N=C/c2ccc(F)cc2)cc1

- IC50 (Histone deacetylase 1 [13]): 0.028 µM
- IC50 (Histone deacetylase [14]): 0.234 µM
- IC50 [15]: 0.107 µM
- IC50 (Histone deacetylase [16]): 0.132 µM
Compound: CCn1cnc(-c2ccccc2)c1-c1ccc(/C=C/C(=O)NO)cc1

Second part, the molecule before the results:

Compound: CCCCCCC[C@H](OC(=O)[C@@H](CCCCN(O)C=O)NC(=O)c1nc(-c2cc(OC)ccc2O)oc1C)C(C)(C)C(=O)N[C@H]1CCCCN(O)C1=O [AMAMISTATIN A]
- IC50 (A549): 0.56 µM
- IC50 (MCF7 [1]): 0.48 µM
- IC50 (MKN-45): 0.24 µM

Compound: CC1(C)C(=O)N(c2ccc(C#N)c(C(F)(F)F)c2)C(=O)N1Cc1ccc(-c2cn(CCCCCCC(=O)NO)nn2)cc1
- IC50 (Vero): 11 µM
- IC50 (RWPE-1): 0.48 µM
- IC50 (MCF7 [6]): 4.24 µM
- IC50 (MDA-MB-231): 1.45 µM
- IC50 (PC-3): 3.31 µM

Compound: Nc1ccccc1NC(=O)CCCCCCC(=O)Nc1ccc(-c2cn(Cc3ccccc3)nn2)cc1
- IC50 [7]: > 30 µM
- IC50 (Histone deacetylase 2): > 30 µM
- IC50 [8]: > 30 µM
- IC50 (Histone deacetylase 8 [9]): > 30 µM
- IC50 (Histone deacetylase 1 [10]): > 30 µM

Compound: CC1(C)C(=O)N(c2ccc(C#N)c(C(F)(F)F)c2)C(=O)N1CCCCc1cn(CCCCCCC(=O)NO)nn1
- IC50 (Vero): > 20 µM
- IC50 (RWPE-1): 12.1 µM
- IC50 (MCF7 [6]): 14.6 µM
- IC50 (MDA-MB-231): > 20 µM
- IC50 (PC-3): 15.7 µM

Compound: Nc1cccc(-c2csc(NC(=O)CCCCCCC(=O)Nc3ccccc3N)n2)c1
- IC50 [7]: > 30 µM
- IC50 (Histone deacetylase 2): 0.147 µM
- IC50 [8]: 2.91 µM
- IC50 (Histone deacetylase 8 [9]): > 30 µM
- IC50 (Histone deacetylase 1 [10]): 2.49 µM

Compound: O=C(Nc1cc(-c2ccccc2)ccc1O)c1c(-c2ccc(O)cc2)sc2cc(O)ccc12
- inhibition (Histone deacetylase 1 [17]): 21 to 34%
- inhibition [18]: < 12%
